“And” between values parts separate entries of the source, which are not always exact repeats. Equal values may be shown once. Read-outs that look alike come from different tables or passages of the source. No end group written: not given here.
Key:
[1] = test system: P. acne ATCC 6919; experiment: Antimicrobial assays II, NCCLS broth microdilution MIC; type: cell-based, Propionibacterium acnes; conditions: mean of three, in µg/mL
[2] = test system: S. pyogenes ATCC19615; experiment: as above; type: cell-based, Streptococcus pyogenes; conditions: mean of three, in µg/mL
[3] = test system: S. aureus (MRSA); type: cell-based, Staphylococcus aureus; conditions: mean of three; 16 to 20 hours at 35° C.
[4] = test system: S. pneumoniae C719; experiment: Antimicrobial assays II, NCCLS broth microdilution MIC; type: cell-based, Streptococcus pneumoniae; conditions: mean of three, in µg/mL
[5] = test system: S. pneumoniae C718; experiment: as above; type: cell-based, Streptococcus pneumoniae; conditions: mean of three
[6] = test system: yeast (Saccharomyces cerevisiae); experiment: Antimicrobial assay I, yeast assay in RPMI 1640; type: cell-based; conditions: RPMI 1640 media
[7] = test system: Pseudomonas aeruginosa ATCC 9027; experiment: Antimicrobial assay I, MIC by OD measurement; type: cell-based; conditions: 37° C. for 24 hours, absorbance 620 nm
[8] = test system: Staphylococcus aureus ATCC 6538; experiment: Antimicrobial assay I, MIC by OD measurement; type: cell-based; conditions: 37° C. for 24 hours, absorbance 620 nm
[9] = test system: P. aeruginosa H374; type: cell-based, Pseudomonas aeruginosa; parameters: key to FIC Index: FIC = 0.25 + MIC antibiotic in combination / MIC alone; ≤0.5 = synergy; conditions: for MIC Cm-comb.: MIC of chloramphenicol with peptide at ¼ MIC; for MIC Nal-comb.: MIC of nalidixic acid with peptide at ¼ MIC; for FIC Index: 0.5 or less = synergy
Outline: (§1)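 Synergy against efflux-mutant strains: two-fold dilutions of nalidixic acid or chloramphenicol tested with peptide held at ¼ of its MIC.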

[10] = test system: P. aeruginosa H774; type: cell-based, Pseudomonas aeruginosa; parameters: key to FIC Index: FIC = 0.25 + MIC antibiotic in combination / MIC alone; ≤0.5 = synergy; conditions: P. aeruginosa H744; nalidixic acid + peptide at ¼ MIC; 0.5 or less = synergy
Outline: as §1

[11] = test system: P. aeruginosa; type: cell-based, Pseudomonas aeruginosa; parameters: key to FIC Index: FIC = 0.25 + MIC antibiotic in combination / MIC alone; ≤0.5 = synergy; conditions: P. aeruginosa H744; MIC of nalidixic acid with peptide at ¼ MIC
Outline: as §1

[12] = test system: S. pyogenes M76; experiment: Antimicrobial assays II, NCCLS broth microdilution MIC; type: cell-based, Streptococcus pyogenes; conditions: mean of three; 16 to 20 hours at 35° C.
[13] = test system: S. epidermidis C621; type: cell-based, Staphylococcus epidermidis; conditions: mean of three; 16 to 20 hours at 35° C.
[14] = test system: SW480; experiment: Anti-cancer assay, MTT, LD50; type: cell-based; conditions: SW480 colon adenocarcinoma line, 24 hours with peptide
Description: (§2) Numbers are LD50 values (μg/mL).

[15] = test system: HeLaS3; experiment: Anti-cancer assay, MTT, LD50; type: cell-based; conditions: 24 hours with peptide, cervical carcinoma
Description: as §2

[16] = test system: BMKC; experiment: Anti-cancer assay, MTT, LD50; type: cell-based; conditions: BMKC cloned melanoma line, 24 hours with peptide
Description: as §2

[17] = test system: H1299; experiment: Anti-cancer assay, MTT, LD50; type: cell-based; conditions: 24 hours with peptide, lung large cell carcinoma
Description: as §2

[18] = test system: MCF7; experiment: Anti-cancer assay, MTT, LD50; type: cell-based; conditions: MCF7 breast adenocarcinoma line, MTT, 24 hours with peptide
Description: as §2

[19] = test system: PC3; experiment: Anti-cancer assay, MTT, LD50; type: cell-based; conditions: 24 hours with peptide, prostate adenocarcinoma
Description: as §2

[20] = in vitro; conditions: human, WI38 normal lung fibroblast cells, LD50 WI38, WI38 normal lung fibroblast line, MTT, 24 hours with peptide
[21] = in vitro; type: cell-based, human; conditions: human, human red blood cells, pH 7, hemolytic assay, concentration at 50% hemolysis, 1 hour at 37° C.; read-out: LD50
[22] = test system: WI38; conditions: MTT, 24 hours with peptide; normal fibroblast line
[23] = chloramphenicol + peptide at ¼ MIC
[24] = nalidixic acid + peptide at ¼ MIC, FIC=0.25+MIC comb/MIC alone

FAKLLALALKKAL-NH2 [P97, FAKLLALALKKAL-NH2]
P. acne MIC [1]: 8 and 16 | S. pyogenes MIC [2]: 4 and 8 | S. aureus (MRSA) MIC [3]: 8 µg/mL | S. pneumoniae MIC [4]: 16 and 32 | S. pneumoniae MIC [5]: 32 µg/mL | yeast (MIC or MFC) [6]: 50 µg/mL | paerug9027 (MIC) [7]: 50 µg/mL | staph6538 (MIC) [8]: 5 µg/mL | MIC Cm-comb. [9]: 16 µg/mL | MIC Nal-comb. [9]: 5000 µg/mL | FIC Index [9, 23]: 1.25 | FIC Index [9, 24]: 1.25 | FIC Index [10]: 0.375 | MIC Nal-comb. [11]: 78 µg/mL | S. pyogenes M76 MIC [12]: 4 µg/mL | S. epidermidis C621 MIC [13]: 4 µg/mL

VAKKLAKLAKKLAKLAL-NH2 [P50]
P. acne MIC [1]: 4 | S. pyogenes MIC [2]: 4 | S. aureus (MRSA) MIC [3]: 4 µg/mL | S. pneumoniae MIC [4]: 16 | S. pneumoniae MIC [5]: 32 µg/mL | yeast (MIC or MFC) [6]: 50 µg/mL | paerug9027 (MIC) [7]: 15 µg/mL | staph6538 (MIC) [8]: 5 µg/mL | LD50 SW480 [14]: 46 µg/mL | HeLaS3 LD50 [15]: 33 µg/mL | LD50 BMKC [16]: 40 µg/mL | H1299 LD50 [17]: 7 µg/mL | LD50 MCF7 [18]: 32 µg/mL | PC3 LD50 [19]: 54 µg/mL | MIC Cm-comb. [9]: 16 µg/mL | MIC Nal-comb. [9]: 5000 µg/mL | FIC Index [9, 23]: 1.25 | FIC Index [9, 24]: 1.25 | FIC Index [10]: 1.25 | MIC Nal-comb. [11]: 624 µg/mL | S. pyogenes M76 MIC [12]: 8 µg/mL | S. epidermidis C621 MIC [13]: 4 µg/mL

FALLKALLKKAL-NH2 [P177, FALLKALLKKAL-NH2]
P. acne MIC [1]: 8 | CC50 at 24 h [20]: 270 µg/mL | S. pyogenes MIC [2]: 4 | S. aureus (MRSA) MIC [3]: 8 µg/mL | S. pneumoniae MIC [4]: 16 | S. pneumoniae MIC [5]: 32 µg/mL | LD50 SW480 [14]: 310 µg/mL | LD50 BMKC [16]: 310 µg/mL | LD50 MCF7 [18]: 190 µg/mL | MIC Cm-comb. [9]: 8 µg/mL | MIC Nal-comb. [9]: 5000 µg/mL | FIC Index [9, 23]: 0.75 | FIC Index [9, 24]: 1.25 | FIC Index [10]: 0.75 | MIC Nal-comb. [11]: 312 µg/mL | S. pyogenes M76 MIC [12]: 8 µg/mL | S. epidermidis C621 MIC [13]: 4 µg/mL | HC50 at 1 h [21]: 400 µg/mL

GIGKFLKKAKKFGKAFVKILKK-NH2 [P42, reference compound]
P. acne MIC [1]: 2 | S. pyogenes MIC [2]: 4 | S. aureus (MRSA) MIC [3]: 16 µg/mL | S. pneumoniae MIC [4]: 8 | S. pneumoniae MIC [5]: 32 µg/mL | yeast (MIC or MFC) [6]: 200 µg/mL | paerug9027 (MIC) [7]: > (> indicates greater than 200 μg/mL) | staph6538 (MIC) [8]: 10 µg/mL | LD50 SW480 [14]: 34 µg/mL | LD50 BMKC [16]: 140 µg/mL | H1299 LD50 [17]: 150 µg/mL | LD50 MCF7 [18]: 31 µg/mL | PC3 LD50 [19]: 66 µg/mL | MIC Cm-comb. [9]: 16 µg/mL | MIC Nal-comb. [9]: 5000 µg/mL | FIC Index [9, 23]: 1.25 | FIC Index [9, 24]: 1.25 | FIC Index [10]: 1.25 | MIC Nal-comb. [11]: 624 µg/mL | S. pyogenes M76 MIC [12]: 4 µg/mL | S. epidermidis C621 MIC [13]: 2 µg/mL

FAKKLAKKLL-NH2 [P59]
P. acne MIC [1]: 2 | CC50 at 24 h [20]: 77 µg/mL | S. pyogenes MIC [2]: 2 | S. aureus (MRSA) MIC [3]: 8 µg/mL | S. pneumoniae MIC [4]: 4 | S. pneumoniae MIC [5]: 16 µg/mL | yeast (MIC or MFC) [6]: > (> indicates greater than 200 μg/mL) | paerug9027 (MIC) [7]: > (> indicates greater than 200 μg/mL) | staph6538 (MIC) [8]: > (> indicates greater than 200 μg/mL) | LD50 SW480 [14]: 42 µg/mL | LD50 BMKC [16]: 155 µg/mL | H1299 LD50 [17]: 180 µg/mL | LD50 MCF7 [18]: 31 µg/mL | PC3 LD50 [19]: 81 µg/mL | MIC Cm-comb. [9]: 8 µg/mL | MIC Nal-comb. [9]: 2500 µg/mL | FIC Index [9, 23]: 0.75 | FIC Index [9, 24]: 0.75 | FIC Index [10]: 1.25 | MIC Nal-comb. [11]: 624 µg/mL | WI38 LD50 [22]: 77 µg/mL | S. pyogenes M76 MIC [12]: 2 µg/mL | S. epidermidis C621 MIC [13]: 8 µg/mL | HC50 at 1 h [21]: 1000 µg/mL

FAKALKALLKALKAL-NH2 [P64]
P. acne MIC [1]: 2 | S. pyogenes MIC [2]: 4 | S. aureus (MRSA) MIC [3]: 8 µg/mL | S. pneumoniae MIC [4]: 2 | S. pneumoniae MIC [5]: 8 µg/mL | yeast (MIC or MFC) [6]: 200 µg/mL | paerug9027 (MIC) [7]: > (> indicates greater than 200 μg/mL) | staph6538 (MIC) [8]: 5 µg/mL | HeLaS3 LD50 [15]: 30 µg/mL | LD50 BMKC [16]: 35 µg/mL | H1299 LD50 [17]: 30 µg/mL | LD50 MCF7 [18]: 80 µg/mL | PC3 LD50 [19]: 46 µg/mL | MIC Cm-comb. [9]: 16 µg/mL | MIC Nal-comb. [9]: 5000 µg/mL | FIC Index [9, 23]: 1.25 | FIC Index [9, 24]: 1.25 | FIC Index [10]: 1.25 | MIC Nal-comb. [11]: 624 µg/mL | S. pyogenes M76 MIC [12]: 4 µg/mL | S. epidermidis C621 MIC [13]: 4 µg/mL

CC(C)C[C@H](NC(=O)[C@H](C)NC(=O)[C@H](CC(C)C)NC(=O)[C@H](C)NC(=O)[C@H](CC(C)C)NC(=O)[C@H](CCCCN)NC(=O)[C@H](C)NC(=O)[C@H](CC(C)C)NC(=O)[C@H](CCCCN)NC(=O)[C@H](CCCCN)NC(=O)[C@H](C)NC(=O)[C@H](CC(C)C)NC(=O)[C@H](CCCCN)NC(=O)[C@H](C)NC(=O)[C@H](CC(C)C)NC(=O)[C@H](CCCCN)NC(=O)[C@H](CCCCN)NC(=O)[C@H](C)NC(=O)[C@@H](N)C(C)C)C(N)=O [P504]
P. acne MIC [1]: 4 | S. pyogenes MIC [2]: 16 | S. aureus (MRSA) MIC [3]: 4 µg/mL | S. pneumoniae MIC [4]: 8 | S. pneumoniae MIC [5]: 64 µg/mL | MIC Cm-comb. [9]: 16 µg/mL | MIC Nal-comb. [9]: 5000 µg/mL | FIC Index [9, 23]: 1.25 | FIC Index [9, 24]: 1.25 | FIC Index [10]: 2.25 | MIC Nal-comb. [11]: 1248 µg/mL | S. pyogenes M76 MIC [12]: 8 µg/mL | S. epidermidis C621 MIC [13]: 4 µg/mL | HC50 at 1 h [21]: 70 µg/mL

FAKKLAKKLKKLAKKLAKKWKL-OH [P72]
P. acne MIC [1]: 2 | CC50 at 24 h [20]: 125 µg/mL | S. pyogenes MIC [2]: 16 | S. aureus (MRSA) MIC [3]: 16 µg/mL | S. pneumoniae MIC [4]: 16 | S. pneumoniae MIC [5]: > 128 µg/mL | LD50 SW480 [14]: 82 µg/mL | HeLaS3 LD50 [15]: 240 µg/mL | LD50 BMKC [16]: 290 µg/mL | H1299 LD50 [17]: 160 µg/mL | LD50 MCF7 [18]: 93 µg/mL | PC3 LD50 [19]: 63 µg/mL | MIC Cm-comb. [9]: 8 µg/mL | MIC Nal-comb. [9]: 2500 µg/mL | FIC Index [9, 23]: 0.75 | FIC Index [9, 24]: 0.75 | FIC Index [10]: 0.75 | MIC Nal-comb. [11]: 312 µg/mL | WI38 LD50 [22]: 125 µg/mL | S. pyogenes M76 MIC [12]: 16 µg/mL | S. epidermidis C621 MIC [13]: 4 µg/mL | HC50 at 1 h [21]: 110 µg/mL

Reference: US20050209157A1, “Short bioactive peptides and methods for their use” (priority 2001, published 2005)
